Source: patent US20230081426A1, “COMPOUNDS AND METHODS FOR KRAS MODULATION AND INDICATIONS THEREFOR” (Plexxikon Inc., priority 2020, published 2023)

Legend:
[1] = target: T1, G12D-mutant human KRAS (amino acid residues 1-188) (Homo sapiens, UniProt P01116, G12D); test: KRAS Binding Disruption Assay (AlphaScreen; biotinylated KRpep-2d analogue or RAF1-RBD), G12D; details: KRAS G12D; geometric mean; read-out: KRAS GMean IC50 (uM) MUTATION: G12D
T1 construct: G12D or G12C-mutant human KRAS (amino acid residues 1-188) with FLAG tag; made in house; host or cells: E. coli
T1 sequence (P01116 1-188 isoform P01116-2 G12D): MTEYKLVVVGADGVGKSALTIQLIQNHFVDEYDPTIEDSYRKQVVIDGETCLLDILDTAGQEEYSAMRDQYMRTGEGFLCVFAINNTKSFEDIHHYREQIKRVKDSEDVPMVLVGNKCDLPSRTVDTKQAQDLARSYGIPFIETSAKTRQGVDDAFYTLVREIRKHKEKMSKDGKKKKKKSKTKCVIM
Outline: (§1)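 Compounds are titrated against 5-20 nM mutant KRAS and 5-20 nM of either a biotinylated KRpep-2d analogue or RAF1-RBD, incubated 1 h at 25° C. Disruption is detected as reduced Alpha signal after 1 h with donor and acceptor beads at 10 μg/mL.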

[2] = target: T2, G12C-mutant human KRAS (amino acid residues 1-188) (Homo sapiens, UniProt P01116, G12C); test: KRAS Binding Disruption Assay (AlphaScreen; biotinylated KRpep-2d analogue or RAF1-RBD), G12C; details: geometric mean, read-out: KRAS GMean IC50 (uM) MUTATION: G12C
T2 construct: G12D or G12C-mutant human KRAS (amino acid residues 1-188) with FLAG tag; made in house; host or cells: E. coli
T2 sequence (P01116 1-188 isoform P01116-2 G12C): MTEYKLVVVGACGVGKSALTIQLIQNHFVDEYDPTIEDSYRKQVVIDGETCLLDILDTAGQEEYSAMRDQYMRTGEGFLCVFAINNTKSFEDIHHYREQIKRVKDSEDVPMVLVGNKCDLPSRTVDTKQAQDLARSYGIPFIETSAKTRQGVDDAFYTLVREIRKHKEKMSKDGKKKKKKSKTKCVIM
Outline: as §1

IC50 [1] [µM]	IC50 [2] [µM]	Compound
10 to 100	10 to 100	CN(C)C(=O)CCNc1nc(N2C[C@H]3CC[C@@H](C2)N3)c2ccc(-c3cc(O)cc4ccccc34)cc2n1 [P-0058, 3-((4-((1R,5S)-3,8-diazabicyclo[3.2.1]octan-3-yl)-7-(3-hydroxynaphthalen-1-yl)quinazolin-2-yl)amino)-N,N-dimethylpropanamide]
0.0001 to 10	10 to 100	Oc1cc(-c2ccc3c(N4CC5CCC(C4)N5)nc(OCC4CCCC4O)nc3c2F)c2ccccc2c1 [P-0688, 4-(4-((1R,5S)-3,8-diazabicyclo[3.2.1]octan-3-yl)-8-fluoro-2-((2-hydroxycyclopentyl)methoxy)quinazo-lin-7-yl)naphthalen-2-ol]
0.0001 to 10	100 to 1000	Oc1cc(-c2ccc3c(N4C[C@H]5CC[C@@H](C4)N5)nc(N4CCC(O)C4)nc3c2F)c2ccccc2c1 (stereo partly drawn) [P-0791, 1-(4-((1R,5S)-3,8-diazabicyclo[3.2.1]octan-3-yl)-8-fluoro-7-(3-hydroxynaphthalen-1-yl)quinazolin-2-yl)pyrrolidin-3-ol]
10 to 100	10 to 100	Cc1cccc2[nH]nc(-c3ccc4c(N5C[C@H]6CC[C@@H](C5)N6)nc(OC[C@@H]5CCCN5C)nc4c3F)c12 [P-0712, 4-((1R,5S)-3,8-diazabicyclo[3.2.1]octan-3-yl)-8-fluoro-7-(4-methyl-1H-indazol-3-yl)-2-(((S)-1-methylpyrrolidin-2-yl)methoxy)quinazoline]

The next lines start with the molecule.

Compound	IC50 [1] [µM]	IC50 [2] [µM]
CCc1c(F)ccc2[nH]cc(-c3ccc4c(N5C[C@H]6CC[C@@H](C5)N6)nc(OCC56CCCN5CCC6)nc4c3F)c12 [P-0709, 4-((1R,5S)-3,8-diazabicyclo[3.2.1]octan-3-yl)-7-(4-ethyl-5-fluoro-1H-indol-3-yl)-8-fluoro-2-((tetrahydro-1H-pyrrolizin-7a(5H)-yl)methoxy)quinazoline]	0.0001 to 10	0.0001 to 10
COc1cccc2ncnc(-c3ccc4c(N5C[C@H]6CC[C@@H](C5)N6)nc(OC[C@@H]5CCCN5C)nc4c3F)c12 [P-0727, 4′-((1R,5S)-3,8-diazabicyclo[3.2.1]octan-3-yl)-8′-fluoro-5-methoxy-2′-(((S)-1-methylpyrrolidin-2-yl)methoxy)-4,7′-biquinazoline]	100 to 1000	100 to 1000
Fc1c(-c2c[nH]c3cccc(C(F)(F)F)c23)ccc2c(N3C[C@H]4CC[C@@H](C3)N4)nc(OCC34CCCN3CCC4)nc12 [P-0723, 4-((1R,5S)-3,8-diazabicyclo[3.2.1]octan-3-yl)-8-fluoro-2-((tetrahydro-1H-pyrrolizin-7a(5H)-yl)methoxy)-7-(4-(trifluoromethyl)-1H-indol-3-yl)quinazoline]	0.0001 to 10	0.0001 to 10
CN1CCC[C@H]1COc1nc(N2C[C@H]3CC[C@@H](C2)N3)c2cc(F)c(-c3c[nH]c4cc(C#N)ccc34)c(F)c2n1 [P-0798, 3-(4-((1R,5S)-3,8-diazabicyclo[3.2.1]octan-3-yl)-6,8-difluoro-2-(((S)-1-methylpyrrolidin-2-yl)methoxy)quinazolin-7-yl)-1H-indole-6-carbonitrile]	10 to 100	100 to 1000
CN1CCC[C@H]1COc1nc(N2C[C@H]3CC[C@@H](C2)N3)c2cc(F)c(-c3c[nH]c4ccc(Cl)nc34)c(F)c2n1 [P-0756, 4-((1R,5S)-3,8-diazabicyclo[3.2.1]octan-3-yl)-7-(5-chloro-1H-pyrrolo[3,2-b]pyridin-3-yl)-6,8-difluoro-2-(((S)-1-methylpyrrolidin-2-yl)methoxy)quinazoline]	0.0001 to 10	100 to 1000
CN1CCC[C@H]1COc1nc(N2C[C@H]3CC[C@@H](C2)N3)c2cc(F)c(-c3c[nH]c4ccc(F)cc34)c(F)c2n1 [P-0726, 4-((1R,5S)-3,8-diazabicyclo[3.2.1]octan-3-yl)-6,8-difluoro-7-(5-fluoro-1H-indol-3-yl)-2-(((S)-1-methylpyrrolidin-2-yl)methoxy)quinazoline]	0.0001 to 10	10 to 100
